The values that follow come from ChEMBL document CHEMBL3856182, “How much successful are the medicinal chemists in modulation of SIRT1: A critical review” (Eur J Med Chem, 2016).

Molecules are shown by their SMILES. Converted amounts (≈) assume the structure as drawn. Bounds are passed on as bounds.

Series [1] concerns the target T1, NAD-dependent protein deacetylase sirtuin-1 (Homo sapiens) (UniProt Q96EB6).
T1 sequence (whole entry): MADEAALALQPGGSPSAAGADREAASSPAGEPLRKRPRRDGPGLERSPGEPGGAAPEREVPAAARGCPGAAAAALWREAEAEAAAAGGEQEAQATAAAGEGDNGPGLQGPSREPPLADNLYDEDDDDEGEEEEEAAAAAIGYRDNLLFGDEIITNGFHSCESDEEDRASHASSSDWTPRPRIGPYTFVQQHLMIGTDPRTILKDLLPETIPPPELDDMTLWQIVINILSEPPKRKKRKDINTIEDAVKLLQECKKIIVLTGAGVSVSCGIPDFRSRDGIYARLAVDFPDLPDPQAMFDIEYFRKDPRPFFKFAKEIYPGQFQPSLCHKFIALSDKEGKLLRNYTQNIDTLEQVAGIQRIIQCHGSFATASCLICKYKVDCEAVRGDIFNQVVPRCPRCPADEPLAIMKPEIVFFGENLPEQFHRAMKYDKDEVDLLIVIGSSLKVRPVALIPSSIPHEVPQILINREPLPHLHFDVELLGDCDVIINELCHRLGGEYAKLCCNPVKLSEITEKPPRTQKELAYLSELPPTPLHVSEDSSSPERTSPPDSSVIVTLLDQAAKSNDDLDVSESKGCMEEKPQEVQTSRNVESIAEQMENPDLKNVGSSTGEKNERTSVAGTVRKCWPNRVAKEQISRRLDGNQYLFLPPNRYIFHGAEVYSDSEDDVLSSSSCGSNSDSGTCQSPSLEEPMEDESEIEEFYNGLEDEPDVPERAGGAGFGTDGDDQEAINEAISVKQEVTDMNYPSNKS
Kind of series: Activation of recombinant human SIRT1 using TPE-GK(Ac)YDD as substrate at 50 uM by fluorescence assay relative to control.

The target of series [2] is T2, NAD-dependent protein deacetylase sirtuin-1 (Homo sapiens, UniProt Q96EB6).
T2 sequence (Q96EB6 whole entry): T1 sequence (whole entry)
Kind of series: Inhibition of SIRT1 (unknown origin) using acetylated lysine as substrate by Fluor de Lys assay.

Series [3] addresses T1, NAD-dependent protein deacetylase sirtuin-1 (Homo sapiens). Kind of series: Activation of recombinant human SIRT1 using TPE-GK(Ac)YDD as substrate at 1 to 50 uM by fluorescence assay relative to control.
The target of series [4] is T2, NAD-dependent protein deacetylase sirtuin-1. Kind of series: Activation of recombinant human SIRT1 assessed as increase in deacetylation of Fluor de Lys-SIRT1-specific substrate after 2 hrs by HTS assay.
The target is the same in series [5]. In words: Inhibition of recombinant SIRT1 (unknown origin) assessed as deacetylation activity using acetylated p53 as substrate measured after 2 hrs by Fluor de Lys assay.
For series [6], the target named is NAD-dependent histone deacetylase SIR2 (Saccharomyces cerevisiae S288c, UniProt P06700). Kind of series: Non-competitive inhibition of recombinant yeast glutathione-S-transferase-tagged SIRT2 using acetylated histone as substrate measured after 30 mins by fluorimetric analysis.
In series [7] the target is T3, NAD-dependent protein deacetylase sirtuin-2 (Homo sapiens, UniProt Q8IXJ6).
T3 sequence (Q8IXJ6 whole entry): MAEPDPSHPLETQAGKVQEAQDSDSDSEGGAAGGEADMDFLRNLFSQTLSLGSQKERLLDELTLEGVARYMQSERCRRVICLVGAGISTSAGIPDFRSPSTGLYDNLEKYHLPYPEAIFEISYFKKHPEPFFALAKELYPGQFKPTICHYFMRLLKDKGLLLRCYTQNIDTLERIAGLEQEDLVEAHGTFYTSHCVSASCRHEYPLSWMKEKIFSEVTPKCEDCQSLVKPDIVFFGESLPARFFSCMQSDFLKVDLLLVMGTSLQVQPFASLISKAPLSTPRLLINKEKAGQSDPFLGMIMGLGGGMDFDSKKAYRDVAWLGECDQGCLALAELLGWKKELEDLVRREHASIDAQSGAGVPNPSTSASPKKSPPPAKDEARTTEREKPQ
In words: Inhibition of full-length human N-terminal His6-tagged SIRT2 expressed in Escherichia coli BL21 (DE3) assessed as inhibition of deacetylase activity using ZMAL as substrate measured after 4 hrs by Fluor de Lys assay.

Series [8] addresses T2, NAD-dependent protein deacetylase sirtuin-1. In words: Inhibition of full-length human N-terminal GST-tagged SIRT1 expressed in Escherichia coli BL21 (DE3) assessed as inhibition of deacetylase activity using ZMAL as substrate measured after 4 hrs by Fluor de Lys assay.
For series [9] the target is unchanged. In words: Inhibition of human SIRT1 using biotinylated peptide with an acetylated FLAG sequence as substrate measured after 3 hr in presence of NAD+ by TR-FRET assay. (In general: In TR-FRET formats the signal depends on donor and acceptor labels being close together.)
In series [10] the target is T3, NAD-dependent protein deacetylase sirtuin-2. In words: Inhibition of human SIRT2 using biotin labeled histone H4 peptide with an acetylated lysine 4 as substrate measured after 1 hr by luminescence analysis.
A short description of series [11]: Cytotoxicity in human LNCAP cells assessed as growth inhibition measured after 48 hrs by MTT assay. The class given is functional. (In general: Tetrazolium assays rely on reduction of a dye to a coloured formazan, in cell work by metabolically active cells.)
A short description of series [12]: Cytotoxicity in human Caco2 cells assessed as growth inhibition measured after 48 hrs by MTT assay. The class given is functional. The note with it: Caco-2, 48 h.
Series [13] can be described thus: Cytotoxicity in human MDA-MB-231 cells assessed as growth inhibition measured after 48 hrs by MTT assay. In kind it is functional. The note with it: MDA-MB-231, 48 h.
Series [14] can be described thus: Cytotoxicity in human U937 cells assessed as growth inhibition measured after 48 hrs by MTT assay. The class given is functional. The note with it: U-937, 48 h.
The nature of series [15]: Cytotoxicity in HEK293 cells assessed as growth inhibition measured after 48 hrs by MTT assay. The note with it: human. The class given is toxicity, cell-based.
A short description of series [16]: Cytotoxicity against human prostate cancer cells. In kind it is functional. The note with it: Cancer cell lines.
Series [17] is described as follows: Cytotoxicity against human breast cancer cells. In kind it is functional. The note with it: Cancer cell lines.
Series [18] can be described thus: Cytotoxicity against human colon cancer cells. In kind it is functional. The note with it: Cancer cell lines.
Series [19] can be described thus: Cytotoxicity against human leukemia cells. The class given is functional. The note with it: Leukemia cell.
Series [20] can be described thus: Cytotoxicity against human lung cancer cells. The note with it: Cancer cell lines. In kind it is functional.
Series [21] can be described thus: Cytotoxicity against human kidney cancer cells. The note with it: Cancer cell lines. In kind it is functional.
For series [22], the target named is T2, NAD-dependent protein deacetylase sirtuin-1. Kind of series: Inhibition of recombinant human SIRT1 (193 to 747 residues) expressed in Escherichia coli BL21 (DE3) using AMC-labeled p53-derived acetylated lysine as substrate in presence of NAD+ by HTS assay.
For series [23], the system named is Saccharomyces cerevisiae. Kind of series: Growth inhibition of yeast.
Series [24] has as its target T3, NAD-dependent protein deacetylase sirtuin-2. Kind of series: Inhibition of recombinant human GST-tagged SIRT2 overexpressed in Escherichia coli DH5alpha assessed as deacetylation activity using [3H]-MPSDKTIGG as substrate measured after overnight incubation by liquid scintillation counting method.
Series [25] concerns the target T2, NAD-dependent protein deacetylase sirtuin-1. Kind of series: Inhibition of recombinant human GST-tagged SIRT1 overexpressed in Escherichia coli DH5alpha assessed as deacetylation activity using [3H]-MPSDKTIGG as substrate measured after overnight incubation by liquid scintillation counting method.

Sequence of NAD-dependent histone deacetylase SIR2 (P06700 whole entry): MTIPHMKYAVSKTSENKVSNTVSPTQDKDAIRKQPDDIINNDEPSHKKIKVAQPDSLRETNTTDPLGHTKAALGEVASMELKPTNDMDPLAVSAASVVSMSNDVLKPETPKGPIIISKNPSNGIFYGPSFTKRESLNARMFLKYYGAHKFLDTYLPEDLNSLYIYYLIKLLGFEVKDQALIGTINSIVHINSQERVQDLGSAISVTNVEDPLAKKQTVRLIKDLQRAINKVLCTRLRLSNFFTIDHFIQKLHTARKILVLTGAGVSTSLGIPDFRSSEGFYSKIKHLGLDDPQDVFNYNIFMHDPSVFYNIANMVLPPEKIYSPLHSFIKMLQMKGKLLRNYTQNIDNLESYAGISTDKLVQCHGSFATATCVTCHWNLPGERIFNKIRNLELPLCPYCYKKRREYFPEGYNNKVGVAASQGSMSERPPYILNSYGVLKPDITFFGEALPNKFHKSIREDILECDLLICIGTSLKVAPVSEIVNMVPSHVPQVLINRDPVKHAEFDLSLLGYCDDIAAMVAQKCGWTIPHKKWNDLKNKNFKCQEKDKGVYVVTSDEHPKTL

Take `COc1cc2c(c(OC)c1OC)-c1c(cc(OC)c(OC)c1OC)C[C@H](C)[C@H](C)C2`: the Activity in [1] came to 28%.
Turning to `NC(=O)c1ccccc1Oc1ccccc1`, in series [2], the IC50 (in general, the concentration needed to halve the response being measured) is > 100 µM.
For the compound `CC(C)=CCC[C@](C)(O[C@@H]1O[C@H](CO[C@@H]2OC[C@H](O)[C@H](O)[C@H]2O)[C@@H](O)[C@H](O)[C@H]1O)[C@H]1CC[C@]2(C)[C@@H]1[C@H](O)C[C@@H]1[C@@]3(C)CC[C@H](O[C@@H]4O[C@H](CO)[C@@H](O)[C@H](O)[C@H]4O[C@@H]4O[C@H](CO)[C@@H](O)[C@H](O)[C@H]4O)C(C)(C)[C@@H]3CC[C@]12C`, in [3], the Activity fell in the range of 8 to 152%.
On to `Nc1c(S(=O)(=O)c2ccccc2)c2nc3ccccc3nc2n1-c1ccc(F)cc1`, for which the EC50 (commonly the midpoint of the concentration-response curve) in [4] is < 1 µM.
In the case of `CN(C)/C=N/C(=O)C1CCCc2c1[nH]c1ccc(Cl)cc21` (configuration not stated), the IC50 in [5] was 0.149 µM.
On to `NC(=O)c1cccnc1` [NIACINAMIDE], for which the IC50 in [6] is < 50 µM.
Regarding `Nc1cc(NC(=O)Nc2cccc(C(=O)Nc3cccc(C(=O)Nc4ccc(S(=O)(=O)O)c5cc(S(=O)(=O)O)cc(S(=O)(=O)O)c45)c3)c2)cc(C(=O)Nc2cccc(C(=O)Nc3ccc(S(=O)(=O)O)c4cc(S(=O)(=O)O)cc(S(=O)(=O)O)c34)c2)c1`, the values for the IC50 in [7] and in series [8] were 2.26 µM and 0.093 µM, respectively.
Turning to `Cc1ccc(-c2nc3c(=O)n(C)c(=O)nc-3n(C)n2)cc1`, the IC50 was 0.11 µM in [9] and > 100 µM in [10].
Take `O=C(O)c1cccc(NC(=O)c2ccc(N3C(=O)c4ccc(C(=O)Nc5cccc(C(=O)O)c5)cc4C3=O)cc2)c1`: the GI50 in series [11], in series [12], in series [13] and in series [14] was < 1 µM each time. Also, the GI50 (as a rule, the concentration giving 50% growth inhibition) at 48 h in [15] was < 1 µM.
Consider `COc1ccc2c3c(c4cc(OC)c(OC)cc4c2c1)CN1CCCC[C@@H]1C3`, for which the GI50 in [16], in [17], in [18], in series [19], in [20] and in series [21] was 0.0002 to 0.1 µg/mL (≈ 0.00053 to 0.265 µM) in each case.
With `Fc1cccc(-n2cc(CSC(=S)N3CCN(C(=S)SCc4cn(-c5ccccc5F)nn4)CC3)nn2)c1`, the IC50 in series [22] turned out to be 1.08 µM.
`CC(C)=CCC[C@](C)(O[C@@H]1O[C@H](CO[C@@H]2O[C@@H](CO)[C@H](O)[C@H]2O)[C@@H](O)[C@H](O)[C@H]1O)[C@H]1CC[C@]2(C)[C@@H]1[C@H](O)C[C@@H]1[C@@]3(C)CC[C@H](O[C@@H]4O[C@H](CO)[C@@H](O)[C@H](O)[C@H]4O[C@@H]4O[C@H](CO)[C@@H](O)[C@H](O)[C@H]4O)C(C)(C)[C@@H]3CC[C@]12C`: the Activity in [1] came out at 88%.
In turn, `CN(C)CCCCC(=O)Nc1ccc(NC(=S)NC(=O)c2ccc(C(C)(C)C)cc2)cc1` returned an IC50 in series [23] of 30 µM.
Regarding `CC(C)=CCC[C@]1(C)[C@@H](CC=C(C)C)C[C@@]2(CC=C(C)C)C(=O)[C@]1(C(=O)C(C)C)C(=O)C(CC=C(C)C)=C2OCC(=O)O`, the IC50 is 21 µM in [24] and 7 µM in [25].
Consider `COCCCn1c(N)c(C(=O)NC2CCCC2)c2nc3ccccc3nc21`, for which the EC50 in series [4] is < 1 µM.
